Data reported in Sander's compilation of Henry's law constants.
“And” between values parts separate entries of the source, which are not always exact repeats. Equal entries are not always repeated.

Assay: Henry solubility constant Hcp at 298.15 K (mol/(m3 Pa))
[1] = reference: Buttery et al. (1971)
[2] = reference: Warner et al. (1980)
[3] = reference: Murphy et al. (1983a)
[4] = reference: Roberts and Pollien (1997)
[5] = reference: Christie and Crisp (1967)
[6] = reference: Buttery et al. (1965)
[7] = reference: Fenclová et al. (2014)
[8] = reference: Schuhfried et al. (2011)
[9] = reference: Rochester and Symonds (1973)
[10] = reference: Mackay et al. (1979)
[11] = reference: Copolovici and Niinemets (2005)

In the case of `COP(=S)(OC)Oc1ccc([N+](=O)[O-])c(C)c1` [fenitrothion], the “Henry solubility constant Hcp” value (reference: Metcalfe et al. (1980)) is reported as 11.
With `CCCO` [1-propanol] the “Henry solubility constant Hcp” value (reference: Burnett (1963)) was 1.6, the “Henry solubility constant Hcp” value (reference: Butler et al. (1935)) was 1.4 and the “Henry solubility constant Hcp” value (reference: Gupta et al. (2000)) was 1.2. For the same compound, the “Henry solubility constant Hcp” value (reference: Richon et al. (1985)) was 1.8, the “Henry solubility constant Hcp” value (reference: Snider and Dawson (1985)) was 1.3 and the “Henry solubility constant Hcp” value (reference: Straver and de Loos (2005)) was 1.5. The “Henry solubility constant Hcp” value (reference: Vitenberg and Dobryakov (2008)) was 1.5.
For `CCc1cnccn1` [2-ethylpyrazine], the “Henry solubility constant Hcp” value [1] was 4.
For `CCC(=O)C(C)=O` [2,3-pentanedione], the “Henry solubility constant Hcp” value (reference: Wu et al. (2022b)) was 0.13.
With `Cc1cccnc1` [3-methylpyridine] the “Henry solubility constant Hcp” value (reference: Chaintreau et al. (1995)) was 0.42.
With `ClC1=C(Cl)C2(Cl)C3C(Cl)C=CC3C1(Cl)C2(Cl)Cl` (stereo unspecified) [heptachlor] the “Henry solubility constant Hcp” value [2] was 0.0067.
With `CN=C=S` [methyl isothiocyanate] the “Henry solubility constant Hcp” value (reference: Worthington and Wade (2007)) was 0.16.
In the case of `C[Si](C)(C)O` [trimethylsilanol], the “Henry solubility constant Hcp” value (reference: Xu and Kropscott (2014)) is reported as 0.07.
In the case of `O=C(O)C(Br)(Br)Br` [tribromoethanoic acid], the “Henry solubility constant Hcp” value (reference: Bowden et al. (1998a)) is reported as 2900.
For `Clc1cccc(-c2ccc(Cl)c(Cl)c2Cl)c1Cl` [2,2',3,3',4-pentachlorobiphenyl], the “Henry solubility constant Hcp” value [3] was 0.049.
For `Cc1cc(C)c(N)cc1C` [2,4,5-trimethylbenzenamine], the “Henry solubility constant Hcp” value (reference: Jayasinghe et al. (1992)) was 3.9.
With `CCCN(CCC)C(=O)SCC` [S-ethyl dipropylthiocarbamate] the “Henry solubility constant Hcp” value (reference: Breiter et al. (1998)) was 0.038 and the “Henry solubility constant Hcp” value (reference: Reyes-Pérez et al. (2008)) was 0.56.
For `Cc1cc(C)nc(Nc2ccccc2)n1` [pyrimethanil], the “Henry solubility constant Hcp” value (reference: Feigenbrugel and Le Calvé (2021)) was 340.
For `CCCCOCCOCCO` [3,6-dioxa-1-decanol], the “Henry solubility constant Hcp” value (reference: Kim et al. (2000)) was 1400.
In the case of `CCOC(C)(C)CC` [2-ethoxy-2-methylbutane], the “Henry solubility constant Hcp” value (reference: Haimi et al. (2006)) is reported as 0.0048.
For `CC1(C)[C@@H]2CC[C@@]1(C)[C@](C)(O)C2` [2-methylisoborneol], the “Henry solubility constant Hcp” value (reference: Ömür-Özbek and Dietrich (2005)) was 0.089.
In the case of `C=CC(O)CCCCC` (stereo unspecified) [1-octen-3-ol], the “Henry solubility constant Hcp” value (reference: Druaux et al. (1998)) is reported as 0.25, the “Henry solubility constant Hcp” value [4] is reported as 0.13 and the “Henry solubility constant Hcp” value (reference: Wu et al. (2022a)) is reported as 0.19.
With `CNC` [dimethylamine] the “Henry solubility constant Hcp” value [5] was 0.56.
For `[Hg]` [mercury], the “Henry solubility constant Hcp” value (reference: Andersson et al. (2008)) was 0.0013 and the “Henry solubility constant Hcp” value (reference: Sanemasa (1975)) was 0.0013.
With `CCCCCCCC=O` [octanal] the “Henry solubility constant Hcp” value [6] was 0.075.
With `CCCCCCCCCC=O` [decanal] the “Henry solubility constant Hcp” value [6] was 0.17.
With `c1ccsc1` [thiophene] the “Henry solubility constant Hcp” value (reference: Haimi et al. (2006)) was 0.0041.
With `CCCCC(CC)CO` (stereo unspecified) [2-ethyl-1-hexanol] the “Henry solubility constant Hcp” value (reference: Wu et al. (2022a)) was 0.15.
For `CCOC(=O)C(C)CC` (stereo unspecified) [ethyl 2-methylbutanoate], the “Henry solubility constant Hcp” value (reference: Pollien et al. (2003)) was 0.0089 and the “Henry solubility constant Hcp” value [4] was 0.027.
For `COc1cc(CC(C)=O)ccc1O` [guaiacylacetone], the “Henry solubility constant Hcp” value (reference: McFall et al. (2020)) was 12000.
For `Clc1cc2oc3cc(Cl)c(Cl)cc3c2cc1Cl` [2,3,7,8-tetrachlorodibenzofuran], the “Henry solubility constant Hcp” value (reference: Friesen et al. (1993)) was 0.59.
With `CCCCOC(C)=O` [butyl ethanoate] the “Henry solubility constant Hcp” value [7] was 0.035, the “Henry solubility constant Hcp” value (reference: Ioffe et al. (1984)) was 0.035 and the “Henry solubility constant Hcp” value (reference: Kieckbusch and King (1979b)) was 0.035.
With `Clc1ccc(Cl)c(-c2c(Cl)cc(Cl)c(Cl)c2Cl)c1` [2,2',3,4,5',6-hexachlorobiphenyl] the “Henry solubility constant Hcp” value [3] was 0.016.
For `CCCCC/C=C/C=O` [(E)-2-octenal], the “Henry solubility constant Hcp” value [1] was 0.13.
In the case of `CCSCC` [diethyl sulfide], the “Henry solubility constant Hcp” value [8] is reported as 0.0035.
For `Clc1ccc(-c2ccc(Cl)c(Cl)c2)cc1Cl` [3,3',4,4'-tetrachlorobiphenyl], the “Henry solubility constant Hcp” value (reference: Charles and Destaillats (2005)) was 0.029.
With `COc1cc(C)ccc1O` [4-methyl-2-methoxyphenol] the “Henry solubility constant Hcp” value (reference: Sagebiel et al. (1992)) was 7.7 and 7.1.
For `CC(Cl)CCl` (stereo unspecified) [1,2-dichloropropane], the “Henry solubility constant Hcp” value (reference: Bissonette et al. (1990)) was 0.003, the “Henry solubility constant Hcp” value (reference: Bobadilla et al. (2003)) was 0.0042 and the “Henry solubility constant Hcp” value [2] was 0.0035.
For `CC(O)C(F)(F)F` (stereo unspecified) [1,1,1-trifluoro-2-propanol], the “Henry solubility constant Hcp” value [9] was 0.45.
In the case of `CC(C)(Cl)Cl` [2,2-dichloropropane], the “Henry solubility constant Hcp” value (reference: Bakierowska and Trzeszczyński (2003)) is reported as 0.00081.
With `Brc1ccc(Br)c(Br)c1` [1,2,4-tribromobenzene] the “Henry solubility constant Hcp” value (reference: Kuramochi et al. (2004)) was 0.031.
For `ClC1=C(Cl)C(Cl)(Cl)C(Cl)=C1Cl` [hexachlorocyclopentadiene], the “Henry solubility constant Hcp” value [2] was 0.0006 and the “Henry solubility constant Hcp” value (reference: Wolfe et al. (1982)) was 0.00037.
With `CCOC(=O)C(F)(F)F` [trifluoroethanoic acid, ethyl ester] the “Henry solubility constant Hcp” value (reference: Kutsuna and Kaneyasu (2021)) was 0.00071 and the “Henry solubility constant Hcp” value (reference: Kutsuna et al. (2005)) was 0.00089.
With `CC(F)(Cl)Cl` [1,1-dichloro-1-fluoroethane] the “Henry solubility constant Hcp” value (reference: Kutsuna (2013)) was 0.00029 and the “Henry solubility constant Hcp” value (reference: Maaßen (1995)) was 0.00028.
In the case of `c1ccc(-c2ccccc2)cc1` [biphenyl], the “Henry solubility constant Hcp” value [10] is reported as 0.024.
In the case of `C=CCSC` [allyl methyl sulfide], the “Henry solubility constant Hcp” value [8] is reported as 0.0042.
In the case of `CCCCOCCOC(C)=O` [2-butoxyethyl ethanoate], the “Henry solubility constant Hcp” value (reference: Kim et al. (2000)) is reported as 1.8.
With `OCC(F)(F)F` [2,2,2-trifluoroethanol] the “Henry solubility constant Hcp” value (reference: Chen et al. (2003)) was 0.47 and the “Henry solubility constant Hcp” value [9] was 0.58.
For `CCCC(=O)OC` [methyl butanoate], the “Henry solubility constant Hcp” value (reference: Aprea et al. (2007)) was 0.037 and the “Henry solubility constant Hcp” value (reference: Ioffe et al. (1984)) was 0.036.
With `CCCCS` [1-butanethiol] the “Henry solubility constant Hcp” value (reference: Coquelet and Richon (2005)) was 0.0015 and the “Henry solubility constant Hcp” value (reference: Haimi et al. (2006)) was 0.0015.
In the case of `CC1=CCC(=C(C)C)CC1` [1-methyl-4-(1-methylethylidene)-cyclohexene], the “Henry solubility constant Hcp” value [11] is reported as 0.00038.
In the case of `CC(F)(F)Cl` [1-chloro-1,1-difluoroethane], the “Henry solubility constant Hcp” value (reference: Chang and Criddle (1995)) is reported as 0.00015, the “Henry solubility constant Hcp” value (reference: Kutsuna (2013)) is reported as 0.00015 and the “Henry solubility constant Hcp” value (reference: Maaßen (1995)) is reported as 0.00014. For the same compound, the “Henry solubility constant Hcp” value (reference: Reichl (1995)) was 0.00014.
For `ClC1=C(Cl)C2(Cl)C3C4OC4C(Cl)C3C1(Cl)C2(Cl)Cl` (stereo unspecified) [heptachlorepoxide], the “Henry solubility constant Hcp” value [2] was 0.31.
In the case of `NCl` [chloramine], the “Henry solubility constant Hcp” value (reference: Holzwarth et al. (1984)) is reported as 0.92.
With `CCCCNCCCC` [dibutylamine] the “Henry solubility constant Hcp” value [5] was 0.11.
In the case of `CCOC(=O)CC` [ethyl propanoate], the “Henry solubility constant Hcp” value [7] is reported as 0.041.
In the case of `CCc1ncc(C)nc1C` [2-ethyl-3,5-dimethylpyrazine], the “Henry solubility constant Hcp” value (reference: Wieland et al. (2015)) is reported as 2.9.
For `c1cc2c3c(cccc3c1)CC2` [acenaphthene], the “Henry solubility constant Hcp” value [10] was 0.068 and the “Henry solubility constant Hcp” value [2] was 0.041.
In the case of `C1=C\CCCCCC/1` [cyclooctene], the “Henry solubility constant Hcp” value (reference: Dohányosová et al. (2004)) is reported as 0.00021.
For `C=C1C=CC(C(C)C)CC1` (stereo not drawn) [β-phellandrene], the “Henry solubility constant Hcp” value [11] was 0.00018.
In the case of `C=COCCC` [propyl vinyl ether], the “Henry solubility constant Hcp” value (reference: Hwang et al. (2010)) is reported as 0.0031.
